According to US10751380B2, “Compound and method for treating spasms, inflammation and pain” (priority 2018, dated 2020):
“And” between values parts separate entries of the source, which are not always exact repeats. Identical values can stand only once. Like-named read-outs stand apart in the source and are kept apart here.

Columns and labels:
[1] = mice, cited from earlier work
[2] = 20 mg of THC and 120 mg of codeine; cited from earlier work
[3] = cited from earlier work; for analgesic effect versus placebo: 5 mg of THC and 50 mg of codeine
[4] = topical; cited from earlier work
[5] = cited from earlier work
[6] = cited from earlier work; remark: listed apart in the source
[7] = mice, subcutaneous; cited from earlier work
[8] = mice, oral administration; cited from earlier work
[9] = target: μ-subtype opioid receptor (MOR) (Homo sapiens, UniProt P35372); settings: cited from earlier work
Chain of μ-subtype opioid receptor (MOR) (P35372 whole entry): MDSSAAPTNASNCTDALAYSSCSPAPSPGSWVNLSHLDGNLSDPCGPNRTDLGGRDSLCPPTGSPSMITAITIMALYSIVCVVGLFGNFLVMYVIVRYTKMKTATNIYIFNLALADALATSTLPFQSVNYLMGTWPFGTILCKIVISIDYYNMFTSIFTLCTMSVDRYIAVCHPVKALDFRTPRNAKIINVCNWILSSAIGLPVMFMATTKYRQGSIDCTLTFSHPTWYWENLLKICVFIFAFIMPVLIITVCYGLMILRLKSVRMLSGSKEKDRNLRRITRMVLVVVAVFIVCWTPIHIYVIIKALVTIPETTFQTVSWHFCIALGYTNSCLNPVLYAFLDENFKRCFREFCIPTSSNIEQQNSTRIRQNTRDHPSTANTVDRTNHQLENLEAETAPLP

[10] = cited from earlier work; remark: listed apart in the source
[11] = 2 mg/mL; cited from earlier work
[12] = cited from earlier work; remark: listed apart in the source
[13] = cited from earlier work; remark: listed apart in the source
[14] = man, cited from earlier work
[15] = cited from earlier work; remark: listed apart in the source
[16] = cited from earlier work; remark: listed apart in the source
[17] = animal studies, compared with codeine; cited from earlier work
[18] = cited from earlier work; remark: listed apart in the source
[19] = monkeys, up to 9000 mg/kg THC; cited from earlier work
[20] = oral, dissolved in sesame oil, cited from earlier work
[21] = of 750 courses of oral therapy; cited from earlier work
[22] = cited from earlier work; remark: listed apart in the source
[23] = Acute oral toxicity of THC in rats (Thompson 1973); settings: 150 lb., female or male, respectively
[24] = doses of 15 and 20 mg; cited from earlier work
[25] = cited from earlier work; for excretion: as acid metabolites
[26] = 50 mg of THC daily, P<0.01; cited from earlier work
[27] = dogs, cited from earlier work
[28] = by mouth, immediate-release formulation; cited from earlier work

For C=C(C)[C@@H]1CCC(C)=C[C@H]1c1c(O)cc(CCCCC)cc1O [CBD, cannabidiol], the “effectiveness at inhibition of PBQ-induced writhing among cannabinoids” value ([1]; oral, 100 micrograms/kg) is given as “most effective”.
In the case of COc1ccc2c3c1O[C@H]1[C@@H](O)C=C[C@H]4[C@@H](C2)N(C)CC[C@@]341 [codeine], the “analgesic effectiveness, THC versus codeine” value [2] is listed as “equally effective” and the “analgesic effect versus placebo” value [3] is listed as “analgesic effect in comparison with placebo”.
For CCCCCc1cc(O)c2c(c1)OC(C)(C)c1ccc(C)cc1-2 [CBN, cannabinol], the “inhibition of PBQ-induced writhing” value ([1]; doses higher than 10 mg/kg) is listed as 40% and the “antagonism of TPA-induced erythema of skin” value [4] is listed as “least effective”.
For CC(=O)Oc1cc(O[C@H](C)CCCc2ccccc2)cc2c1[C@@H]1C[C@H](O)CC[C@H]1[C@H](C)N2 [Levonantradol], the analgesia versus placebo ([5]; 1.5, 2, 2.5, 3 mg intermuscular, all doses, at least P<0.05, no dose-response) is given as “significantly superior to placebo”, the “patients reporting at least one side-effect” value ([5]; human, in vivo) is given as 57% and the analgesia versus placebo ([6]; human small RCTs) is given as “superior to placebo”. For the same compound, the patients reporting sedation ([6]; in vivo) was “almost half the patients”.
For CC[C@@H]1CN2CC[C@@]3(O)C(=Nc4cccc(OC)c43)[C@@H]2C[C@@H]1/C(=C\OC)C(=O)OC [7-hydroxymitragynine, (αE,2S,3S,7aS,12bS)-3-ethyl-1,2,3,4,6,7,7a,12b-octahydro-7a-hydroxy-8-methoxy-α-(methoxymethylene)-indolo[2,3-a]quinolizine-2-acetic acid methyl ester], the gastrointestinal transit [7] is given as “inhibition of the gastrointestinal transit”, the “analgesic potency relative to morphine” value [8] is given as “thirteen times more potent analgesic than morphine” and the “activity at the μ-subtype opioid receptor (MOR)” value [9] is given as “partial agonists”.
In the case of CC[C@@H]1CN2CCc3c([nH]c4cccc(OC)c34)[C@H]2C[C@@H]1/C(=C\OC)C(=O)OC (stereo in doubt) [mitragynine, (aE,2S,3S,12bS)-3-ethyl-1,2,3,4,6,7,12,12b-octahydro-8-methoxy-α-(methoxymethylene)-indolo[2,3-a]quinolizine-2-acetic acid methyl ester], the water solubility [10] is listed as less than 100 µg/mL, the “nerve conduction, compound nerve action potential” value [11] is listed as “blocked the nerve conduction, amplitude and duration of compound nerve action potential” and the “total drug release in in vitro dissolution” value ([12]; simulated gastric fluid (SGF)) is listed as “higher”. The “drug release in in vitro dissolution” value ([12]; simulated intestinal fluid (SIF)) was “prolonged and incomplete”, the “log P” value [13] was 1.73 and 1.70 and the “urine excretion of unchanged form” value ([14]; 24-hour period) was 0.14%. For the same compound, the “apparent volume of distribution” value ([14]; oral Kratom tea, nine subjects) was 38.04 ± 24.32 L/kg, the terminal half-life ([14]; oral Kratom tea, nine subjects) was 23.24 ± 16.07 h and the “time to reach the maximum plasma concentration” value ([14]; oral Kratom tea, nine subjects) was 0.83 ± 0.35 h. For the same compound, the “2-deoxy-D-glucose-stimulated gastric acid secretion” value ([15]; administration into fourth ventricle of anesthetized rats, reversed by naloxone) was “inhibition of 2-deoxy-D-glucose-stimulated gastric acid secretion in a dose dependent manner”, the “basal gastric acid secretion” value ([15]; administration into the lateral ventricle) was “did not alter” and the lethality ([16]; rats, 200 mg/kg) was “lethal effects”. The toxicity ([16]; rodents, dose levels of 800-900 mg/kg) was “no toxicity”, the “activity at the μ-subtype opioid receptor (MOR)” value [9] was “partial agonists” and the “antinociceptive and cough-suppressant effects” value [17] was “comparable to those of codeine”. The pKa ([18]; conventional UV) was 8.11±0.11 and the pKa ([18]; microplate reader determination) was 8.08±0.04.
In the case of CCCCCc1cc(O)c2c(c1)OC(C)(C)[C@@H]1CCC(C)=C[C@@H]21 [THC, (−)-(6aR,10aR)-6,6,9-trimethyl-3-pentyl-6a,7,8,10a-tetrahydro-6H-benzo[c]chromen-1-ol], the “death due to toxicity at maximum dose” value [19] is listed as “no cases of death”, the LD50 ([20]; female rats) is listed as 730 mg/kg and the LD50 ([20]; male rats) is listed as 1270 mg/kg. For the same compound, the “poor or partial response” value [21] was “approximately 65%”, the analgesia versus placebo ([6]; human small RCTs) was “significantly superior to placebo” and the “time of peak analgesia” value ([6]; human small RCTs) was “around 5 hours”. The “patients who experienced sedation” value ([22]; 10 mg/m2) was “one-third”, the patients with euphoria ([22]; 10 mg/m2) was “majority of patients” and the “patients' self-reports of nausea and vomiting versus placebo” value ([22]; 22 cancer patients resistant to conventional anti-emetics, oral) was “statistically superior to placebo”. For the same compound, the “dose at which maximally effective in the PBQ test” value ([1]; dose that induced catalepsy) was 10 mg/kg, the “analgesic effectiveness, THC versus codeine” value [2] was “equally effective” and the “LD50 scaled up to an adult human” value [23] was 50 to 86 g. For the same compound, the “pain relief versus placebo” value [24] was “significantly superior to placebo”, the excretion ([25]; feces) was 65-80% and the bioavailability ([25]; healthy adults) was 10-20%. The biological half-life ([25]; in vivo) was 1.6-59 h, the metabolism ([25]; in vivo) was “mostly hepatic by CYP2C” and the bioavailability ([25]; inhalation) was 10-35%. For the same compound, the absolute bioavailability ([25]; oral administration, on an average) was 13%, the bioavailability ([25]; oral) was 6-20% and the biological half-life ([25]; orally administered dronabinol) was 25-36 h. For the same compound, the excretion ([25]; urine) was 20-35%, the “analgesic effect versus placebo” value [3] was “analgesic effect in comparison with placebo” and the effect on spasticity ([3]; 5 mg of THC) was “significant effect on spasticity”. For the same compound, the “morphine requirement during active treatment” value [26] was “significantly reduced”, the “antagonism of TPA-induced erythema of skin” value [4] was “least effective” and the “minimum lethal oral dose” value ([27]; oral) was “more than 3 g/kg”. For the same compound, the “death due to toxicity at maximum dose” value ([27]; up to 3000 mg/kg THC) was “no cases of death”.
For CCCCCc1cc(O)cc(O)c1 [olivetol], the “dose of maximal effect in the PBQ test” value [1] is given as “about 100 micrograms/kg”.
In the case of COc1cccc(C2(O)CCCCC2CN(C)C)c1 (centres unmarked) [Tramadol], the “onset of pain relief” value [28] is listed as “within an hour”.
